Assay results: patent US7994209B2, “3-phenoxymethylpyrrolidine compounds” (Theravance, Inc., priority 2009, dated 2011)

Columns and labels:
hSERT [1] = biological target: T1, hSERT (Homo sapiens, UniProt P31645); experiment: hSERT neurotransmitter uptake assay (3H-5-HT), Assay 2; assay type: cell-based; set-up: expressed in transfected cells; host or cells: HEK-293; details: serotonin reuptake inhibition, 3H-5-HT uptake, HEK-293 hSERT cells (values without asterisk); read-out: SERT pIC50 (converted)
T1 sequence (P31645 whole entry): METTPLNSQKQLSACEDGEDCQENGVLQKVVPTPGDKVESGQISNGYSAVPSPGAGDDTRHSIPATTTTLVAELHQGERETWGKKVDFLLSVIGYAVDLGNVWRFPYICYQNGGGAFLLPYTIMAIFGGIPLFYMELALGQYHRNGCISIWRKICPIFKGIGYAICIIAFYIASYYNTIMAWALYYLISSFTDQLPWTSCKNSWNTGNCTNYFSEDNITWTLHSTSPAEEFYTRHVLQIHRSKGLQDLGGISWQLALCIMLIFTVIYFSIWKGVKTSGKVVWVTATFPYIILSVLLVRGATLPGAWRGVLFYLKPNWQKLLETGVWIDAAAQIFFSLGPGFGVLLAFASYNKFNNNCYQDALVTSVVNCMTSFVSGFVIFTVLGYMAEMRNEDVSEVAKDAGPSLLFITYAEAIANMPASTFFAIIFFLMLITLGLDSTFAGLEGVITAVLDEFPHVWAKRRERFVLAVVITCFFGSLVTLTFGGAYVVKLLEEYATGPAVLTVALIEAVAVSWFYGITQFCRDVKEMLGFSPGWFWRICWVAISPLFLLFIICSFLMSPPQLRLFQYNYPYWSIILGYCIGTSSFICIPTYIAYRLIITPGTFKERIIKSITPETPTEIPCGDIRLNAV
Method: (§1) Cells were harvested by centrifugation at 1100 rpm for 5 minutes, washed once by resuspension in PBS, then centrifuged. The supernatant was discarded and the cell pellet resuspended, by gentle trituration, in room temperature Krebs-Ringer bicarbonate buffer containing HEPES (10 mM), CaCl2 (2.2 mM), ascorbic acid (200 μM) and pargyline (200 μM), pH 7.4.
(§2) Test compounds were incubated for 30 minutes at 37° C. with the respective cells, prior to addition of radiolabeled neurotransmitter, ^3H-5-HT (20 nM final concentration), ^3H-NE (50 nM final concentration) or ^3H-DA (100 nM final concentration).

hNET [2] = biological target: T2, hNET (Homo sapiens, UniProt P23975); experiment: hNET neurotransmitter uptake assay (3H-NE), Assay 2; assay type: cell-based; set-up: expressed in transfected cells; host or cells: HEK-293; details: norepinephrine reuptake inhibition, 3H-NE uptake, HEK-293 hNET cells (values without asterisk); read-out: NET pIC50 (converted)
T2 sequence (P23975 whole entry): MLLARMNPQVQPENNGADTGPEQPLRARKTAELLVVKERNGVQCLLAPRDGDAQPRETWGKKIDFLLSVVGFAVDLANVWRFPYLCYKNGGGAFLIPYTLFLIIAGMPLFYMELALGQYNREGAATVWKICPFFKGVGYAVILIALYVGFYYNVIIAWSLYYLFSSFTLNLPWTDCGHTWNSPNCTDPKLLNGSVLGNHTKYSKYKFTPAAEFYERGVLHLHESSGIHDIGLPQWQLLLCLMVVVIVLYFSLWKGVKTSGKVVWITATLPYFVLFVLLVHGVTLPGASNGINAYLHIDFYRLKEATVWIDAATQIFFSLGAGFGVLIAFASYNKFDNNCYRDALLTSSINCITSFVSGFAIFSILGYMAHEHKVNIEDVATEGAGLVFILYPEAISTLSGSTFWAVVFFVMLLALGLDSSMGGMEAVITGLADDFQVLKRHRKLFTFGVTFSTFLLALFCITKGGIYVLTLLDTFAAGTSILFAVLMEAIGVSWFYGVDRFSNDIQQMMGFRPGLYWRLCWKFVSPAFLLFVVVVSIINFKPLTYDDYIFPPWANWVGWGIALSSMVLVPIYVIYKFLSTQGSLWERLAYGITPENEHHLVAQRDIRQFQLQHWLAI
Method: as §1, §2

hNET [3] = biological target: T2, hNET; experiment: hNET membrane radioligand binding assay (3H-nisoxetine), Assay 1
hSERT [4] = biological target: T1, hSERT; experiment: hSERT membrane radioligand binding assay (3H-citalopram), Assay 1; details: SERT pKi, hSERT HEK-293 membranes, 1.0 nM 3H-citalopram; values given as lower bounds
Method: Membrane radioligand binding assays were used to measure inhibition of labeled ligand (^3H-citalopram or ^3H-nisoxetine or ^3H-WIN35428) binding to membranes prepared from cells expressing the respective human recombinant transporter (hSERT or hNET or hDAT) in order to determine the pKi values of test compounds at the transporters.
Recombinant human embryonic kidney (HEK-293) derived cell lines stably transfected with hSERT or hNET, respectively, were grown in DMEM medium supplemented with 10% dialyzed FBS (for hSERT) or FBS (for hNET), 100 μg/mL penicillin, 100 μg/mL streptomycin, 2 mM L-glutamine and 250 μg/mL of the aminoglycoside antibiotic G418, in a 5% CO2 humidified incubator at 37° C. When cultures reached 80% confluence, the cells were washed thoroughly in PBS (without Ca^2+ and Mg^2+) and lifted with 5 mM EDTA in PBS. Cells were pelleted by centrifugation, resuspended in lysis buffer (10 mM Tris-HCl, pH7.5 containing 1 mM EDTA), homogenized, pelleted by centrifugation, then resuspended in 50 mM Tris-HCl, pH 7.5 and 10% sucrose at 4° C. Protein concentration of the membrane suspension was determined using a Bio-Rad Bradford Protein Assay kit. Membranes were snap frozen and stored at −80° C.
Binding assays were performed in a 96-well assay plate in a total volume of 200 μl assay buffer (50 mM Tris-HCl, 120 mM NaCl, 5 mM KCl, pH 7.4) with 0.5, 1, and 3 μg membrane protein, for SERT, NET and DAT, respectively.
Stock solutions (10 mM in DMSO) of test compound were prepared and serial dilutions made using Dilution Buffer (50 mM Tris-HCl, 120 mM NaCl, 5 mM KCl, pH 7.4, 0.1% BSA, 400 μM ascorbic acid).
Following a 60 minute incubation at 22° C. (or a period sufficient to reach equilibrium), the membranes were harvested by rapid filtration over a 96-well UniFilter GF/B plate, pretreated with 0.3% polyethyleneimine, and washed 6 times with 300 μl wash buffer (50 mM Tris-HCl, 0.9% NaCl, pH 7.5 at 4° C.). Plates were dried overnight at room temperature, approximately 45 μl of MicroScint™-20 (Perkin Elmer) added and bound radioactivity quantitated via liquid scintillation spectroscopy. Inhibition curves and saturation isotherms were analyzed using GraphPad Prism Software package (GraphPad Software, Inc., San Diego, Calif.). IC50 values were generated from concentration response curves using the Sigmoidal Dose Response (variable slope) algorithm in Prism GraphPad.

Row | SMILES | IC50 (hSERT [1]) | IC50 (hNET [2]) | Ki (hNET [3]) | Ki (hSERT [4])
1 | CC[C@H](Oc1c(Cl)ccc(Cl)c1Cl)[C@H]1CCNC1 [Example 2-37, (S)-3-[(S)-1-(2,3,6-Trichlorophenoxy)propyl]pyrrolidine] | ≤ 100 nM | ≤ 10 nM | ≤ 10 nM | ≤ 10 nM
2 | CC[C@@H](Oc1c(Cl)ccc(Cl)c1Cl)[C@H]1CCNC1 [Example 2-38, (S)-3-[(R)-1-(2,3,6-Trichlorophenoxy)propyl]pyrrolidine] | ≤ 100 nM | ≤ 10 nM | ≤ 10 nM | ≤ 10 nM
3 | CC[C@@H](Oc1c(F)ccc(F)c1Cl)[C@H]1CCNC1 [Example 2-41, (S)-3-[(R)-1-(2-Chloro-3,6-difluorophenoxy)propyl]pyrrolidine] | ≤ 100 nM | ≤ 10 nM | ≤ 10 nM | ≤ 10 nM
4 | CC[C@H](Oc1ccc(Cl)c(F)c1Cl)[C@H]1CCNC1 [Example 2-42, (S)-3-[(S)-1-(2,4-Dichloro-3-fluorophenoxy)propyl]pyrrolidine] | ≤ 10 nM | ≤ 10 nM | ≤ 10 nM | ≤ 10 nM
5 | CC[C@H](Oc1c(C)cc(Cl)cc1Cl)[C@H]1CCNC1 [Example 2-43, (S)-3-[(S)-1-(2,4-Dichloro-6-methylphenoxy)propyl]pyrrolidine] | ≤ 100 nM | ≤ 10 nM | ≤ 10 nM | ≤ 10 nM
6 | CC[C@H](Oc1c(F)cc(Cl)cc1F)[C@H]1CCNC1 [Example 2-48, (S)-3-[(S)-1-(4-Chloro-2,6-difluorophenoxy)propyl]pyrrolidine] | ≤ 10 nM | ≤ 10 nM | ≤ 10 nM | ≤ 10 nM
7 | CC[C@H](Oc1c(F)cc(F)cc1F)[C@H]1CCNC1 [Example 2-55, (S)-3-[(S)-1-(2,4,6-Trifluorophenoxy)propyl]pyrrolidine] | ≤ 100 nM | ≤ 10 nM | ≤ 10 nM | ≤ 10 nM
8 | CC[C@H](Oc1ccc(F)c(OC)c1F)[C@H]1CCNC1 [Example 2-57, (S)-3-[(S)-1-(2,4-Difluoro-3-methoxyphenoxy)propyl]pyrrolidine] | ≤ 100 nM | ≤ 100 nM | ≤ 100 nM | ≤ 10 nM
9 | CC[C@H](Oc1ccc(F)cc1OC)[C@H]1CCNC1 [Example 2-69, (S)-3-[(S)-1-(4-Fluoro-2-methoxyphenoxy)propyl]pyrrolidine] | ≤ 100 nM | ≤ 100 nM | ≤ 10 nM | ≤ 100 nM
10 | CC[C@H](Oc1cc(F)c(Cl)cc1OC)[C@H]1CCNC1 [Example 2-70, (S)-3-[(S)-1-(4-Chloro-5-fluoro-2-methoxyphenoxy)propyl]pyrrolidine] | ≤ 100 nM | ≤ 10 nM | ≤ 10 nM | ≤ 10 nM
11 | CC[C@H](Oc1cccc(Cl)c1C(F)(F)F)[C@H]1CCNC1 [Example 2-71, (S)-3-[(S)-1-(3-Chloro-2-trifluoromethylphenoxy)propyl]pyrrolidine] | ≤ 100 nM | ≤ 10 nM | ≤ 10 nM | ≤ 10 nM
12 | CC[C@@H](Oc1cccc(Cl)c1C(F)(F)F)[C@@H]1CCNC1 [Example 2-72, (R)-3-[(R)-1-(3-Chloro-2-trifluoromethylphenoxy)propyl]pyrrolidine] | ≤ 100 nM | ≤ 100 nM | ≤ 10 nM | ≤ 10 nM
13 | CCC[C@H](Oc1cccc(Cl)c1Cl)[C@H]1CCNC1 [Example 3, (S)-3-[(S)-1-(2,3-Dichlorophenoxy)butyl]pyrrolidine] | ≤ 10 nM | ≤ 10 nM | ≤ 10 nM | ≤ 10 nM
14 | CCC[C@@H](Oc1ccc(Cl)cc1)[C@H]1CCNC1 [Example 4-2, (S)-3-[(R)-1-(4-Chlorophenoxy)butyl]pyrrolidine] | ≤ 10 nM | ≤ 100 nM | ≤ 10 nM | ≤ 10 nM

Now from value to molecule:

Row | IC50 (hSERT [1]) | IC50 (hNET [2]) | Ki (hNET [3]) | Ki (hSERT [4]) | SMILES
15 | ≤ 10 nM | ≤ 10 nM | ≤ 10 nM | ≤ 10 nM | CC[C@@H](Oc1cccc(Cl)c1Cl)[C@@H]1CCNC1 [Example 2-29, (R)-3-[(R)-1-(2,3-Dichlorophenoxy)propyl]pyrrolidine]
16 | ≤ 10 nM | ≤ 10 nM | ≤ 10 nM | ≤ 10 nM | CC[C@H](Oc1ccc(F)cc1Cl)[C@H]1CCNC1 [Example 2-32, (S)-3-[(S)-1-(2-Chloro-4-fluorophenoxy)propyl]pyrrolidine]
17 | ≤ 100 nM | ≤ 10 nM | ≤ 10 nM | ≤ 10 nM | CC[C@@H](Oc1c(F)ccc(Cl)c1Cl)[C@H]1CCNC1 [Example 2-39, (S)-3-[(R)-1-(2,3-Dichloro-6-fluorophenoxy)propyl]pyrrolidine]
18 | ≤ 100 nM | ≤ 10 nM | ≤ 10 nM | ≤ 10 nM | CC[C@H](Oc1c(F)ccc(F)c1Cl)[C@H]1CCNC1 [Example 2-40, (S)-3-[(S)-1-(2-Chloro-3,6-difluorophenoxy)propyl]pyrrolidine]
19 | ≤ 10 nM | ≤ 10 nM | ≤ 10 nM | ≤ 10 nM | CC[C@H](Oc1c(F)ccc(OC)c1Cl)[C@H]1CCNC1 [Example 2-44, (S)-3-[(S)-1-(2-Chloro-6-fluoro-3-methoxyphenoxy)propyl]pyrrolidine]
20 | ≤ 100 nM | ≤ 10 nM | ≤ 10 nM | ≤ 10 nM | CC[C@H](Oc1ccc(Cl)cc1F)[C@H]1CCNC1 [Example 2-47, (S)-3-[(S)-1-(4-Chloro-2-fluorophenoxy)propyl]pyrrolidine]
21 | ≤ 100 nM | ≤ 10 nM | ≤ 10 nM | ≤ 10 nM | CC[C@H](Oc1c(F)ccc(Cl)c1F)[C@H]1CCNC1 [Example 2-52, (S)-3-[(S)-1-(3-Chloro-2,6-difluorophenoxy)propyl]pyrrolidine]
22 | ≤ 10 nM | ≤ 10 nM | ≤ 10 nM | ≤ 10 nM | CC[C@H](Oc1ccc(Cl)cc1C)[C@H]1CCNC1 [Example 2-58, (S)-3-[(S)-1-(4-Chloro-2-methylphenoxy)propyl]pyrrolidine]
23 | ≤ 100 nM | ≤ 100 nM | ≤ 100 nM | ≤ 10 nM | CC[C@@H](Oc1ccc(Cl)cc1C)[C@@H]1CCNC1 [Example 2-60, (R)-3-[(R)-1-(4-Chloro-2-methylphenoxy)propyl]pyrrolidine]
24 | ≤ 100 nM | ≤ 10 nM | ≤ 10 nM | ≤ 10 nM | CC[C@H](Oc1ccccc1C)[C@H]1CCNC1 [Example 2-62, (S)-3-((S)-1-o-Tolyloxypropyl)pyrrolidine]
25 | ≤ 10 nM | ≤ 10 nM | ≤ 10 nM | ≤ 10 nM | CCc1cc(F)ccc1O[C@@H](CC)[C@H]1CCNC1 [Example 2-66, (S)-3-[(S)-1-(2-Ethyl-4-fluorophenoxy)propyl]pyrrolidine]
26 | ≤ 10 nM | ≤ 10 nM | ≤ 10 nM | ≤ 10 nM | CC[C@H](Oc1ccc(Cl)cc1OC)[C@H]1CCNC1 [Example 2-68, (S)-3-[(S)-1-(4-Chloro-2-methoxyphenoxy)propyl]pyrrolidine]
27 | ≤ 100 nM | ≤ 10 nM | ≤ 10 nM | ≤ 10 nM | CC[C@H](Oc1ccc(Cl)cc1C(F)(F)F)[C@H]1CCNC1 [Example 2-75, (S)-3-[(S)-1-(4-Chloro-2-trifluoromethylphenoxy)propyl]pyrrolidine]
28 | ≤ 10 nM | ≤ 10 nM | ≤ 10 nM | ≤ 10 nM | CCC[C@H](Oc1ccc(Cl)cc1)[C@H]1CCNC1 [Example 4-1, (S)-3-[(S)-1-(4-Chlorophenoxy)butyl]pyrrolidine]
